Assay results published in patent US20020155540A1, “Method to reduce transcriptional interference between tandem genes” (priority 2001, published 2002).

System: ecdysone receptor (EcR) based, chemically inducible gene expression system
Experiment: Ecdysone receptor-based gene induction: upstream LUC activation and downstream RLUC expression in protoplasts
Format: cell-based, tobacco
Protocol: Protoplasts were prepared from actively growing tobacco BY-2 suspension cells (Japan Tobacco, Japan) and cultured essentially as described in Kikkawa et al. (9). One ml of protoplasts (5×10^5 to 1×10^6 cells) was mixed with plasmid DNA and electroporated at 0.56 K Volts for 80 μ seconds using an electroporation system with petripulser electrode (BTX). Equimolar plasmid DNA was added to transfections and the amount of DNA added varied from 23 to 30 μg depending on the plasmid size. To standardize the luciferase enzyme assays, 2 μg of the RLUC plasmid DNA were also added to each transfection as an internal control. Following the electroporation, protoplasts were diluted with 1 ml of 2×protoplast culture medium, aliquoted as two 1 ml cultures and incubated at 27° C. for 16-17 h. Each plasmid construct was tested in 5 to 7 independent transfection experiments.
Protoplast cultures were lysed by adding 250 μl of 5× passive lysis buffer (Promega) and shaking at room temperature for 10 minutes. […] The assay was performed with a luminometer plate reader (Dynex). The luciferase enzyme activities were measured and expressed as ratios of luciferase to Renilla luciferase activities in relative light units.
Induction of the Luc gene expression cassette was controlled by the addition of EcR ligand methoxyfenozide.
It contains a constitutively expressed chimeric GVE receptor gene (CsVMV promoter—sequences coding for GAL4 DNA binding domain, VP16 activation domain, and EcR ligand binding domain—NOS terminator) and an inducible promoter (five copies of GAL4 response element+minimal 35S promoter) to drive LUC gene expression (FIG. 1D). When the ligand methoxyfenozide (4) is applied to protoplasts, it binds to and activates the chimeric receptor. The activated receptor then induces LUC gene expression. This system was used to activate the upstream LUC gene, and the influence of LUC activation on the downstream constitutive RLUC gene expression was then measured.

COc1cccc(C(=O)NN(C(=O)c2cc(C)cc(C)c2)C(C)(C)C)c1C [methoxyfenozide]
Luc Induced (10 μM methoxyfenozide): 25,428 RLU | RLuc Induced (10 μM methoxyfenozide): 8832 RLU | reduction of downstream, constitutively expressed RLuc expression (after activation of upstream Luc gene with ligand): 71%
